From PubChem BioAssay (NCI)
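Compound exposure: 48 hours, 5 concentrations, 96-well plates. TGI marks complete inhibition of growth.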

How the values were obtained:
Assay in all cases: inhibition of tumour cell growth, NCI panel, 48 h
[1] = system: OVCAR-5 ovarian
[2] = system: MCF7 breast
[3] = system: PC-3 prostate
[4] = system: K-562 leukemia
[5] = system: M14 melanoma
[6] = system: ACHN renal
[7] = system: MDA-MB-435
[8] = system: LOX IMVI melanoma
[9] = system: SR leukemia
[10] = system: DU-145 prostate
[11] = system: RXF 393 renal
[12] = system: SK-OV-3 ovarian
[13] = system: HS 578T breast
[14] = system: MDA-MB-231 breast
[15] = system: NCI/ADR-RES ovarian

Row | Structure (SMILES) | TGI [1] | TGI [2] | TGI [3] | TGI [4] | TGI [5] | TGI [6] | TGI [7] | TGI [8] | TGI [9] | TGI [10] | TGI [11] | TGI [12] | TGI [13] | TGI [14] | TGI [15]
1 | CC1=NN(c2cccc(Cl)c2)C2(SCC(=O)N2c2nc3ccccc3s2)/C1=C\c1ccc(Cl)cc1 (stereo unspecified) | 55.4 µM | 87 µM | 31.1 µM | 41.3 µM | 43.5 µM | 46.4 µM | 43.1 µM | 45.2 µM | 15.9 µM | 39.2 µM | 38.4 µM | 47.3 µM | 73.6 µM | 72 µM | > 100 µM
2 | Nc1ccccc1CCCC(=O)O | > 100 µM | > 100 µM | > 100 µM | > 100 µM | > 100 µM | > 100 µM | > 100 µM | > 100 µM | > 100 µM | > 100 µM | > 100 µM | > 100 µM | > 100 µM | > 100 µM | > 100 µM
3 | Cn1c2ccccc2c2c(-c3ccccc3)[n+]3ccccc3nc21 | > 100 µM | – | > 100 µM | > 100 µM | 34.4 µM | > 100 µM | 36.6 µM | 37.4 µM | 60.3 µM | > 100 µM | – | > 100 µM | > 100 µM | 97.5 µM | > 100 µM
4 | CN(C)c1ccc(/C=C2/SC(=S)NC2=O)cc1 | 72.6 µM | > 100 µM | > 100 µM | > 100 µM | > 100 µM | > 100 µM | > 100 µM | > 100 µM | > 100 µM | > 100 µM | > 100 µM | > 100 µM | > 100 µM | > 100 µM | > 100 µM
5 | O=C1C=CC2(O[C@H](c3ccccc3)[C@@H](c3ccccc3)O2)C(SC(=O)c2ccccc2)C1 (stereo partly specified) | 3.27 µM | 2.83 µM | 4.58 µM | > 100 µM | 3.07 µM | 3.01 µM | 4.8 µM | 2.33 µM | > 100 µM | > 100 µM | 0.726 µM | 7.01 µM | 5.04 µM | 18 µM | 3.22 µM
6 | O=C(O)CCCCCCC[C@@H]1S[C@H]1CCCCCCO | > 100 µM | > 100 µM | – | > 100 µM | – | – | – | > 100 µM | – | – | > 100 µM | > 100 µM | – | – | > 100 µM
7 | C[n+]1c2ccccc2c(CNc2ccc(S(=O)(=O)N=C(N)N)cc2)c2ccccc21 | > 100 µM | – | – | 52 µM | 28 µM | > 100 µM | – | 20.2 µM | – | – | 34.1 µM | > 100 µM | – | – | –
8 | COc1cc2c(cc1OCCCOc1cc(-c3ccc(F)cc3)nc(C)n1)N=C[C@@H]1CCCN1C2=O | – | > 100 µM | – | – | 29.3 µM | 30.4 µM | 28.5 µM | 28.3 µM | 27.4 µM | 36.1 µM | 54.3 µM | 62.7 µM | 94.3 µM | 30 µM | –
9 | CC(C)(C)NCc1cc(Nc2ccnc3cc(Cl)ccc23)cc(-c2ccc(Cl)cc2)c1O | 16.3 µM | 3.13 µM | 8.22 µM | 2.75 µM | 4 µM | 15 µM | 3.64 µM | 5.64 µM | 4.97 µM | 15 µM | 4.66 µM | 16.9 µM | 6.37 µM | 11.7 µM | 14.4 µM
10 | COc1cc(O)cc(/C=C/c2ccc(O)cc2)c1 | > 100 µM | > 100 µM | > 100 µM | 98.2 µM | > 100 µM | 31.2 µM | > 100 µM | – | > 100 µM | > 100 µM | > 100 µM | > 100 µM | > 100 µM | 47.9 µM | > 100 µM
11 | Cc1ccc(CC(=O)Nc2ccc(NC(=O)/C=C/NC(=O)/C=C/c3ccc(-c4ccccc4)cc3)cc2C(=O)c2ccccc2)cc1 | 5.77 µM | 4.92 µM | 3.48 µM | > 100 µM | 7.3 µM | 10.9 µM | 10.8 µM | 4.84 µM | – | > 100 µM | 3.52 µM | 4.36 µM | 3.74 µM | 5.65 µM | > 100 µM
